Common to all, as to type: biochemical
One experiment addresses Human Factor XIIa (Homo sapiens (Human), UniProt P00748). Description: Determination of FXIIa inhibition (fluorogenic substrate H-DPro-Phe-Arg-AFC, IC50 assay). The note with it: substrate H-DPro-Phe-Arg-AFC at Km, 25° C.; class scale A-G. The method, boiled down: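 Human FXIIa incubated at 25° C with fluorogenic substrate H-DPro-Phe-Arg-AFC at its Km concentration and varying compound concentrations. Fluorescence release monitored over 5 min at 25° C; linear rate expressed as % of uninhibited activity to derive IC50.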

Another experiment deals with KLK1 (Homo sapiens (Human), UniProt P06870). Description: Determination of related protease inhibition: KLK1 (fluorogenic substrate at Km). The note with it: 25° C. In short, it runs like this:
(§1)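 Human protease + fluorogenic substrate (at Km) + test cpd, varied concns; fluorescence kinetic read 5 min, 25 °C. Linear slope → % activity vs uninhibited control; IC50 at 50% inhibition.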

The next experiment has as its target FXa (Homo sapiens (Human), UniProt P00742). Description: Determination of related protease inhibition: FXa (fluorogenic substrate at Km). The settings on record: 25° C. In short, it runs like this:
as §1

For another experiment, the target named is Plasma Kallikrein (Homo sapiens (Human), UniProt P03952). Description: Determination of related protease inhibition: Plasma Kallikrein (fluorogenic substrate at Km). The settings on record: 25° C., read-out: IC50 (human PKal). In short, it runs like this: as §1
The target in a further experiment is Thrombin (Homo sapiens (Human), UniProt P00734). Description: Determination of related protease inhibition: Thrombin (fluorogenic substrate at Km). The settings on record: 25° C. The protocol:
Determination of Related Protease Inhibition
In vitro inhibition of related proteases was determined using an ([…] assay based on standard literature methods (see e.g. Shori et al., Biochem. Pharmacol., 1992, 43, 1209; Bouckaert et al., European Journal of Medicinal Chemistry 110 (2016) 181). Human serine protease enzymes Plasma Kallikrein, KLK1, FXa, Plasmin, Thrombin and Trypsin were assayed for enzymatic activity using an appropriate fluorogenic substrate at Km concentration, FXIa at fixed substrate concentration of 100 μM, and various concentrations of the test compound. Protease activity was measured by monitoring the accumulation of liberated fluorescence from the substrate over […]. The linear rate of fluorescence increase per minute was expressed as percentage (%) activity. IC50 values were calculated as the concentration of inhibitor giving 50% inhibition of the uninhibited enzyme activity (100%).

Consider 20 compounds from patent publication US20240059691A1 (KALVISTA PHARMACEUTICALS LIMITED, priority 2020, published 2024).

SMILES strings stand for the structures.

Sequence of Plasma Kallikrein (P03952 391-638): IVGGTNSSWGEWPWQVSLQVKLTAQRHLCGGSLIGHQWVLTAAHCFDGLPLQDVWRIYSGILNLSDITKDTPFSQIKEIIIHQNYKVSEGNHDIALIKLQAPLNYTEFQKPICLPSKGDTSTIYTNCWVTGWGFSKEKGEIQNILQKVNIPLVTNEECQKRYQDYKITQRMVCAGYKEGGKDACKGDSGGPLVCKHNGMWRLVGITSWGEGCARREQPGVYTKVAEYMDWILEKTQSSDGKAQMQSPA
Sequence of Plasma Kallikrein (P03952 20-390 partner): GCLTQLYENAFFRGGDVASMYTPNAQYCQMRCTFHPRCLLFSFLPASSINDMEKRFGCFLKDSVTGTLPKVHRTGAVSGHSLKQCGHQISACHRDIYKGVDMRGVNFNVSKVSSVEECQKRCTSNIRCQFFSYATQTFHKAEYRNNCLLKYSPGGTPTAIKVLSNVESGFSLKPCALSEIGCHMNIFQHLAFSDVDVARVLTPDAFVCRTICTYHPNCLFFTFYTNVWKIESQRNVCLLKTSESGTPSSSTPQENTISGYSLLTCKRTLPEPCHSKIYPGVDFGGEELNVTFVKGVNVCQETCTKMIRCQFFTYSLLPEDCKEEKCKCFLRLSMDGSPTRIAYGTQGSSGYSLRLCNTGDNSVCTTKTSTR
Sequence of Human Factor XIIa (P00748 373-615): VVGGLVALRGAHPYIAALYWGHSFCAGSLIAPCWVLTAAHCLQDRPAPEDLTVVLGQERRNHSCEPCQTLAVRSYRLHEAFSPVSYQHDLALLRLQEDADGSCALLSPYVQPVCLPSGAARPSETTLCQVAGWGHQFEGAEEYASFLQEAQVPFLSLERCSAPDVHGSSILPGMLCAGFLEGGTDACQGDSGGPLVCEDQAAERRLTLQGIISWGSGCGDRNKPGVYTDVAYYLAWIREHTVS
Sequence of FXa (P00742 235-488): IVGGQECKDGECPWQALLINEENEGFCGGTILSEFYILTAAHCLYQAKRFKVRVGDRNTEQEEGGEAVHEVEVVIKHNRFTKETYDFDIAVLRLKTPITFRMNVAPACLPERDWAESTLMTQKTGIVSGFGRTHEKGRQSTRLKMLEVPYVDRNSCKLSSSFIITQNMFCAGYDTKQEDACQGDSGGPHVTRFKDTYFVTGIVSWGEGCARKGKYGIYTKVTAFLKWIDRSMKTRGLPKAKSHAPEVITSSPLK
Sequence of FXa (P00742 41-179 partner): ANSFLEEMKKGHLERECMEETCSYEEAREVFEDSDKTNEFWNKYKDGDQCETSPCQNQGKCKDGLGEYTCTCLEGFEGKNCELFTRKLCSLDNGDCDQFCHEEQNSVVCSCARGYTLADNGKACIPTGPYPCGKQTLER
Sequence of KLK1 (P06870 25-262): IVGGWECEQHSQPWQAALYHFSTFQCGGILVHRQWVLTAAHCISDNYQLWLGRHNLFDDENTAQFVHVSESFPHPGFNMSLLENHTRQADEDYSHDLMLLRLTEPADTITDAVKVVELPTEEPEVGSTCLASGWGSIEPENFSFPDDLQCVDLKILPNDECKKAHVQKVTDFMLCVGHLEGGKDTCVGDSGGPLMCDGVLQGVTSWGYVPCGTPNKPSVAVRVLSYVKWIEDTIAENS

What is called IC50 is the midpoint of a concentration-inhibition curve. Regarding `CN1CC2(CC(OCc3ccc(CNc4cccc5c(N)nccc45)c(F)c3)C2)C1` [Example 2206, 5-N-[[2-fluoro-4-[(2-methyl-2-azaspiro[3.3]heptan-6-yl)oxymethyl]phenyl]methyl]isoquinoline-1,5-diamine], the IC50 on Human Factor XIIa was 3 to 10 µM; against KLK1 it was 10 to 40 µM; at FXa, over 40 µM; on Plasma Kallikrein, 10 to 40 µM; at Thrombin, over 40 µM.
For the compound `Cn1ccnc1COCc1ccc(CNc2cccc3c(N)nccc23)c(F)c1` [Example 2207, N5-(2-fluoro-4-(((1-methyl-1H-imidazol-2-yl)methoxy)methyl)benzyl)isoquinoline-1,5-diamine], the IC50 against Human Factor XIIa fell in the range of 1 to 3 µM; against KLK1, 10 to 40 µM; against FXa it was 10 to 40 µM; on Plasma Kallikrein, 3 to 10 µM; at Thrombin, 10 to 40 µM.
For the compound `Cn1ccnc1CCOCc1ccc(CNc2cccc3c(N)nccc23)c(F)c1` [Example 2208, N5-[[2-fluoro-4-[2-(1-methylimidazol-2-yl)ethoxymethyl]phenyl]methyl]isoquinoline-1,5-diamine], the IC50 against Human Factor XIIa was 1 to 3 µM; against KLK1, 10 to 40 µM; on FXa, 10 to 40 µM; on Plasma Kallikrein it was over 40 µM; against Thrombin it was 10 to 40 µM.
Take `CN1CC(OCc2ccc(CNc3cccc4c(N)nccc34)c(F)c2)CCC1=O` (stereo not shown) [Example 2209, 5-[[4-[[(1-amino-5-isoquinolyl)amino]methyl]-3-fluoro-phenyl]methoxy]-1-methyl-piperidin-2-one]: the IC50 is 1 to 3 µM on Human Factor XIIa; 10 to 40 µM on KLK1; over 40 µM against FXa; over 40 µM at Plasma Kallikrein; over 40 µM at Thrombin.
For the compound `Cn1ccnc1CC(=O)NCc1ccc(CNc2cccc3c(N)nccc23)c(F)c1` [Example 2211, N-(4-(((1-aminoisoquinolin-5-yl)amino)methyl)-3-fluorobenzyl)-2-(1-methyl-1H-imidazol-2-yl)acetamide], the IC50 on Human Factor XIIa is 10 to 40 µM; at KLK1, 10 to 40 µM; against FXa, over 40 µM; at Plasma Kallikrein it was over 40 µM; on Thrombin, over 40 µM.
Take `CC(C)N1C[C@H]2C[C@@H]1CN2CCc1ccc(CNc2ccc3c(N)ncc(Cl)c3c2)c(F)c1` [Example 2214, 4-chloro-6-N-[(2-fluoro-4-{2-[(1R,4R)-5-isopropyl-2,5-diazabicyclo[2.2.1]heptan-2-yl]ethyl}phenyl)methyl]isoquinoline-1,6-diamine]: the IC50 against Human Factor XIIa was 0.3 to 1 µM; against KLK1, 3 to 10 µM; against FXa it was over 40 µM; at Plasma Kallikrein it was 10 to 40 µM; against Thrombin, over 40 µM.
In the case of `Nc1ncc(Cl)c2cc(NCc3ccc(CCN4CCOCC4)cc3F)ccc12` [Example 2215, 4-chloro-6-N-({2-fluoro-4-[2-(morpholin-4-yl)ethyl]phenyl}methyl)isoquinoline-1,6-diamine], the IC50 on Human Factor XIIa is 10 to 40 µM; at KLK1, 10 to 40 µM; at FXa, over 40 µM; at Plasma Kallikrein, over 40 µM; on Thrombin it was over 40 µM.
For the compound `CN1[C@@H]2COC[C@H]1CC(OCc1ccc(CNc3cccc4c(N)nccc34)c(F)c1)C2` (stereo partly drawn) [Example 2254, N5-(2-fluoro-4-((((1R,5S)-9-methyl-3-oxa-9-azabicyclo[3.3.1]nonan-7-yl)oxy)methyl)benzyl)isoquinoline-1,5-diamine], the IC50 against Human Factor XIIa was 0.1 to 0.3 µM; against KLK1, 10 to 40 µM; against FXa, 10 to 40 µM; at Plasma Kallikrein, over 40 µM; against Thrombin, over 40 µM.
Take `CN1CC2C(COc3cc(CNc4ccc5c(N)nccc5c4)ccn3)C2C1` (stereo not shown) [Example 4269, N6-((2-((3-methyl-3-azabicyclo[3.1.0]hexan-6-yl)methoxy)pyridin-4-yl)methyl)isoquinoline-1,6-diamine]: the IC50 against Human Factor XIIa lay in the range of 0.1 to 0.3 µM; on KLK1, 0.3 to 1 µM; against FXa, 0.01 to 0.1 µM; on Plasma Kallikrein, 3 to 10 µM; against Thrombin, 0.3 to 1 µM.
Regarding `CN1CC2CCC(C1)C2COc1cc(CNc2ccc3c(N)nccc3c2)ccn1` (stereo not shown) [Example 4270, N6-((2-((3-methyl-3-azabicyclo[3.2.1]octan-8-yl)methoxy)pyridin-4-yl)methyl)isoquinoline-1,6-diamine], the IC50 against Human Factor XIIa lay in the range of 0.01 to 0.1 µM; at KLK1, 0.3 to 1 µM; against FXa, 0.01 to 0.1 µM; on Plasma Kallikrein it was 3 to 10 µM; against Thrombin, 1 to 3 µM.
As to `CN1CCC(COc2cc(CNc3ccnc4c(N)nccc34)ccn2)CC1` [Example 4272, 4-N-[[2-[(1-methyl-4-piperidyl)methoxy]-4-pyridyl]methyl]-1,7-naphthyridine-4,8-diamine], the IC50 at Human Factor XIIa was 3 to 10 µM; against KLK1, over 40 µM; against FXa it was over 40 µM; on Plasma Kallikrein it was over 40 µM; at Thrombin, over 40 µM.
As to `CN1CCC(COc2cc(CNc3nccc4c(N)ccnc34)ccn2)CC1` [Example 4273, N8-((2-((1-methylpiperidin-4-yl)methoxy)pyridin-4-yl)methyl)-1,7-naphthyridine-4,8-diamine], the IC50 at Human Factor XIIa is 3 to 10 µM; on KLK1, 10 to 40 µM; at FXa it was 3 to 10 µM; at Plasma Kallikrein, over 40 µM; against Thrombin, over 40 µM.
On to `CC(=O)N1CC2CC1CC2COc1cc(CNc2cccc3c(N)nccc23)ccn1` (stereo not shown) [Example 4274, 1-(5-(((4-(((1-Aminoisoquinolin-5-yl)amino)methyl)pyridin-2-yl)oxy)methyl)-2-azabicyclo[2.2.1]heptan-2-yl)ethan-1-one], for which the IC50 is 1 to 3 µM against Human Factor XIIa; 3 to 10 µM at KLK1; 1 to 3 µM against FXa; over 40 µM on Plasma Kallikrein; 10 to 40 µM at Thrombin.
On to `CC(=O)N1CC2CC1CC2COc1cc(CNc2ccc3c(N)nccc3c2)ccn1` (stereo not shown) [Example 4275, 1-(5-(((4-(((1-aminoisoquinolin-6-yl)amino)methyl)pyridin-2-yl)oxy)methyl)-2-azabicyclo[2.2.1]heptan-2-yl)ethan-1-one], for which the IC50 fell in the range of 1 to 3 µM on Human Factor XIIa; 1 to 3 µM against KLK1; 0.3 to 1 µM against FXa; 10 to 40 µM on Plasma Kallikrein; 0.3 to 1 µM against Thrombin.
In the case of `CN1CC2CC1CC2COc1cc(CNc2cccc3c(N)nccc23)ccn1` (stereo not shown) [Example 4276, 5-N-{[2-({2-methyl-2-azabicyclo[2.2.1]heptan-5-yl}methoxy)pyridin-4-yl]methyl}isoquinoline-1,5-diamine], the IC50 was 0.3 to 1 µM against Human Factor XIIa; 3 to 10 µM against KLK1; 3 to 10 µM against FXa; over 40 µM on Plasma Kallikrein; over 40 µM on Thrombin.
With `CN1CC2CC1CC2COc1cc(CNc2ccc3c(N)nccc3c2)ccn1` (stereo not shown) [Example 4277, N6-((2-((2-methyl-2-azabicyclo[2.2.1]heptan-5-yl)methoxy)pyridin-4-yl)methyl)isoquinoline-1,6-diamine], the IC50 lay within 0.1 to 0.3 µM at Human Factor XIIa; 1 to 3 µM on KLK1; 0.3 to 1 µM at FXa; 3 to 10 µM on Plasma Kallikrein; 1 to 3 µM against Thrombin.
On to `CN1CC2CCC(C1)C2COc1cc(CNc2cccc3c(N)nccc23)ccn1` (stereo not shown) [Example 4278, 5-N-[[2-[(3-methyl-3-azabicyclo[3.2.1]octan-8-yl)methoxy]-4-pyridyl]methyl]isoquinoline-1,5-diamine], for which the 50% inhibitory concentration (IC50) on Human Factor XIIa was 0.1 to 0.3 µM; against KLK1 it was 3 to 10 µM; against FXa, 1 to 3 µM; on Plasma Kallikrein it was over 40 µM; on Thrombin, over 40 µM.
Regarding `CN1C[C@@H](COc2cc(CNc3cccc4c(N)nccc34)ccn2)OC1=O` [Example 4279, (5S)-5-{[(4-{[(1-aminoisoquinolin-5-yl)amino]methyl}pyridin-2-yl)oxy]methyl}-3-methyl-1,3-oxazolidin-2-one], the IC50 was 3 to 10 µM against Human Factor XIIa; 10 to 40 µM on KLK1; over 40 µM at FXa; over 40 µM on Plasma Kallikrein; over 40 µM against Thrombin.
Regarding `CN1C[C@H](COc2cc(CNc3cccc4c(N)nccc34)ccn2)OC1=O` [Example 4280, (5R)-5-{[(4-{[(1-aminoisoquinolin-5-yl)amino]methyl}pyridin-2-yl)oxy]methyl}-3-methyl-1,3-oxazolidin-2-one], the IC50 against Human Factor XIIa was 10 to 40 µM; against KLK1, 10 to 40 µM; at FXa, over 40 µM; on Plasma Kallikrein, over 40 µM; against Thrombin, over 40 µM.
Regarding `CN1CCC(COc2cc(CNc3cccc4c(N)nccc34)cc(C(F)(F)F)n2)CC1` [Example 4281, 5-N-[[2-[(1-methyl-4-piperidyl)methoxy]-6-(trifluoromethyl)-4-pyridyl]methyl]isoquinoline-1,5-diamine], the IC50 is 0.3 to 1 µM on Human Factor XIIa; 3 to 10 µM against KLK1; over 40 µM against FXa; over 40 µM at Plasma Kallikrein; over 40 µM on Thrombin.
